Read-outs that look alike come from different tables or passages of the source.
Experiments:
[1] = system: albumin (secreted, cellular toxicity marker); test: Albumin (in vitro tox), HepaRG; format: cell-based; details: human
Method: (§1) Following 4 day of maturation with 1 μM MB-1, HLC were incubated with HBV (purified from CHB individuals) at multiplicity of infection (MOI) 10-40 without PEG for 24 hr; virus inoculum was removed the following day. HBV infection in PHH was performed at MOI 40+4% PEG. Compound treatment in HLC and PHH was started at day 3 post infection. Compound (in powder) was dissolved in DMSO; the final concentration of DMSO added to cells is 1%. Fresh compound was replenished every 2 day until cells were harvested at day 10 (PHH), or day 14 (HLC). Compound effect on HBV and cellular toxicity was measured by multiplex assay (HBsAg, HBeAg, albumin), branched DNA (pgRNA), or digital PCR (cccDNA) and depicted as % of inhibition compared to DMSO control. Graphs were prepared using Spotfire software.
A custom, Luminex-based multiplex assay that simultaneously measured HBeAg, albumin, and HBsAg was developed by Radix BioSolutions (Georgetown, Tex.). This is a sandwich immunoassay; each capture antibody was coupled with xMAP™ Luminex magnetic beads. […] Samples were read on FlexMAP 3D (Luminex) and analyzed by Genedata software.
Most of HBV in vitro studies, including evaluation of compound antiviral activity, are performed in hepatoma cell lines (HepaRG or HepG2-NTCP) infected with cell culture-derived HBV (e.g. HepG2.2.15-derived virus, GT D). […] To address the first question, PHH (in 384-well plate) were infected with four clinical HBV isolates (GT A-D, at MOI 40). […] Most HBV in vitro studies are performed in hepatoma cell lines (e.g. HepaRG or HepG2 cell lines) utilizing HepG2-derived HBV as the virus inoculum.

[2] = system: pgRNA; test: pgRNA assay (branched DNA), HBV-infected PHH; format: cell-based; details: Hepatitis B virus
Method: Fresh primary human hepatocytes (PXB-PHH) harvested from humanized mice (uPA/SCID mice)—herein called PHH—were obtained from PhoenixBio Co., Ltd (Japan). Cells were seeded on a collagen I-coated plate at the following cell density: 35,000 cells/well (384-well), 70,000 cells/well (96-well), or, 400,000 cells/well (24-well) in modified hepatocyte clonal growth medium (dHCGM). dHCGM is a DMEM medium containing 100 U/ml Penicillin, 100 μg/ml Streptomycin, 20 mM Hopes, 44 mM NaHCO3, 15 μg/ml L-proline, 0.25 μg/ml insulin, 50 nM Dexamethazone, 5 ng/ml EGF, 0.1 mM Asc-2P, 2% DMSO and 10% FBS (Ishida et al., 2015). Cells were cultured at 37° C. incubator in a humidified atmosphere with 5% CO2. Culture medium was replaced 24 h post-plating and every 2 days until harvest.
as §1, with “HBV infection in PHH was performed at MOI 40+4% PEG.” left out
Levels of pgRNA in infected cells (96-well plate) were measured using QuantiGene Singleplex 2.0 assay (Affymetrix), a hybridization-based assay that utilizes the xMAP™ Luminex magnetic beads and branched DNA (bDNA) signal amplification technology. The assay is performed in 96-well plate according to manufacturer's recommendation. Briefly, cells were lysed and lysates were incubated with HBV probe sets panel at 50-55° C. for 30 min then stored at −80° C. Signal amplification is achieved via sequential hybridization of PreAmplifier, Amplifier, and Label Probe. After adding Streptavidin phycoerythrin (SAPE) substrate, the signal is read using a FlexMap 3D (Luminex) instrument.

O=C(NC(CO)CO)c1c[nH]c2ncc(C3CC3)nc12 [compound 7]
IC50 ([1]; HepG2.2.15-derived HBV GT D, MOI 40, read-out: In vitro tox albumin IC50 (μM) Median): 24.9 µM
IC50 ([1]; HepG2.2.15-derived HBV GT D, MOI 125, read-out: In vitro tox albumin IC50 (μM) Median): 26.6 µM
IC50 ([1]; HepaRG cells infected with HBV, patient-derived HBV GT D, MOI 40, read-out: In vitro tox albumin IC50 (μM) Median): 23.4 µM
IC50 ([1]; HepaRG cells infected with HBV, patient-derived HBV GT D, MOI 125, read-out: In vitro tox albumin IC50 (μM) Median): 25.7 µM
IC50 ([2]; 240 h, patient-derived HBV GT A, MOI 40, day 10 pi, read-out: pgRNA IC50 (μM) Median): 3.58 µM
IC50 ([2]; 240 h, patient-derived HBV GT B, MOI 40, day 10 pi, read-out: pgRNA IC50 (μM) Median): 3.13 µM
IC50 ([2]; 240 h, patient-derived HBV GT C, MOI 40, day 10 pi, read-out: pgRNA IC50 (μM) Median): 1.64 µM
IC50 ([2]; 240 h, patient-derived HBV GT D, MOI 40, day 10 pi (Table 5), read-out: pgRNA IC50 (μM) Median): 1.35 µM
IC50 ([2]; HepG2.2.15-derived HBV GT D, MOI 40, read-out: pgRNA IC50 (μM) Median): 12.8 µM
IC50 ([2]; HepG2.2.15-derived HBV GT D, MOI 125, read-out: pgRNA IC50 (μM) Median): 11.3 µM
IC50 ([2]; patient-derived HBV GT D, MOI 40 (Table 6), read-out: pgRNA IC50 (μM) Median): 1.48 µM
IC50 ([2]; patient-derived HBV GT D, MOI 125, read-out: pgRNA IC50 (μM) Median): 2.87 µM
IC50 ([2]; patient-derived HBV, read-out: pgRNA IC50): 1.48 µM

Source: patent US20230248723A1, “PYRROLO[2,3-B]PYRAZINE COMPOUNDS AS CCCDNA INHIBITORS FOR THE TREATMENT OF HEPATITIS B VIRUS (HBV) INFECTION” (Hoffmann-La Roche Inc., priority 2017, published 2023)
